From PubChem BioAssay (NCI)
Values joined by “and” are separate entries in the source; they are usually repeats but may differ in a detail not shown here. Identical values can stand only once.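 Each compound was tested at five concentrations against cells in 96-well plates for 48 hours. GI50 is the concentration that inhibits growth by half. Definition used: TGI = concentration required for complete inhibition of growth.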

Assays:
Assay in all cases: NCI tumour cell line growth inhibition, 48 h
[1] = test system: HT29 colon
[2] = test system: NCI-H226 lung
[3] = test system: UACC-257 melanoma
[4] = test system: UO-31 renal
[5] = test system: MOLT-4 leukemia
[6] = test system: HOP-92 NSCLC
[7] = test system: SK-OV-3 ovarian
[8] = test system: TK-10 renal

SMILES	GI50 [1] [µM]	TGI [1] [µM]	GI50 [2] [µM]	TGI [2]	GI50 [3] [µM]	TGI [3] [µM]	GI50 [4]	TGI [4]	GI50 [5] [µM]	TGI [5]	GI50 [6] [µM]	TGI [6]	GI50 [7] [µM]	TGI [7] [µM]	GI50 [8] [µM]	TGI [8]
COC(=O)Cn1c2c(c3c(O)cccc31)C(=O)c1ccccc1-2	> 100	> 100	> 100	> 100 µM	> 100	> 100	> 100 µM	> 100 µM	> 100	> 100 µM	27	> 100 µM	> 100	> 100	45.4	> 100 µM
CN(C)c1ccc(/C=C\c2cccc[n+]2C)cc1	5.01	> 100	12.2	> 100 µM	7.81	> 100	6.43 µM	> 100 µM	38.4	> 100 µM	4.85	32.8 µM	4.85	52	41.1	> 100 µM
C=CC(=O)N1CCN(c2ccc3cccc(NC(=O)c4cnc(C)cn4)c3n2)CC1	4.05	> 100	4.44	22.3 µM	9.21	36.7	0.351 µM	5.14 µM	2.18	6.66 µM	2.68	> 100 µM	–	–	1.12	> 100 µM
O=[N+]([O-])c1cccc(-c2nc3sccn3c2-c2ccnc(NCCCNS(=O)(=O)c3cccc(F)c3)n2)c1	3.12	> 100	1.66	8.22 µM	2.71	8.27	1.25 µM	9.04 µM	–	–	2.8	30.3 µM	5.82	30.5	5.38	52 µM
CC(=O)NC1=C(OS(=O)(=O)c2ccc(C)cc2)CN(C)C1=O	–	20	–	62.7 µM	–	11.8	–	14.2 µM	–	17.9 µM	–	8.49 µM	–	21	–	7.97 µM
Cc1ccc(-c2cc(-c3ccc(C)cc3)nc(NCCNc3ccnc4cc(Cl)ccc34)n2)cc1	1.74	3.37	1.8	4.18 µM	1.98	4.07	1.37 µM	2.85 µM	–	–	1.23	2.73 µM	1.75	3.34	1.78	3.47 µM
O=C(O)C/C=C/CC(=O)O	–	> 100	–	> 100 µM	–	> 100	–	> 100 µM	–	> 100 µM	–	–	–	> 100	–	> 100 µM
C=C1CC[C@@H]2[C@](C)(COC(C)=O)[C@@H](O)CC[C@@]2(C)[C@@H]1COc1ccc2ccc(=O)oc2c1	> 100	> 100	–	–	> 100	> 100	> 100 µM	> 100 µM	> 100	> 100 µM	> 100	> 100 µM	–	–	> 100	> 100 µM
C/C(=N\Nc1ccc2ccccc2n1)c1ccccn1	< 0.0407	3.09	0.134	2.12 µM	0.0579	0.326	< 0.0395 µM	0.676 µM	< 0.0394	0.404 µM	–	–	0.132	13.6	0.197	16.1 µM
COc1cc2nc(N3CCCC3)nc(NCC3CCCCC3)c2cc1OC	0.435	1.69	1.94	4.05 µM	0.364	1.36	1.1 µM	2.38 µM	–	–	1.11	2.46 µM	1.75	3.24	1.73	3.28 µM
CCN1CCC(CCOC)(CN2c3ccccc3Sc3ccc(Cl)cc32)C1 (centres undefined)	–	–	1.92	4.67 µM	1.93	3.87	1.66 µM	3.63 µM	–	–	–	–	1.91	3.88	2.03	3.67 µM
COc1cccc(C=Nc2cc(C)ccn2)c1O.COc1cccc(C=Nc2cc(C)ccn2)c1O.[Cu]	23.1	52.4	9.25	27.2 µM	19.1	43.1	–	–	10.9	73.4 µM	30.3	50.6 µM	13.6	28.1	19.8	42 µM
CS(=O)(=O)c1ccc(C(=O)Nc2ccc(Cl)c(-c3ccccn3)c2)c(Cl)c1	–	–	–	> 100 µM and 26.5 µM	–	–	12.1 µM and 3.66 µM	> 42.6 µM and 27 µM	–	> 100 µM and 14.7 µM	–	> 100 µM and 10.7 µM	> 100	> 100	–	> 100 µM and 34.7 µM
COc1ccc2cc(-c3ccoc(=O)c3-c3cc(OC)c(OC)c(OC)c3)ccc2c1	0.0383	22.5	6.69	> 100 µM	–	–	0.1 µM	> 100 µM	0.161	> 51.1 µM	2.49	> 100 µM	0.389	> 100	–	> 100 µM
O=C(C1CCCCC1)[C@@H]1[C@]2(C(=O)NC3CCCCC32)[C@@H]2CCCN2[C@@]12C(=O)NC1CCC(Cl)CC12 (some centres undefined)	64.4	199	179	411 µM	135	288	54.1 µM	226 µM	32.2	213 µM	–	–	145	284	266	448 µM
c1ccc2c(c1)c(NCCCCN1CCCCC1)cc1c3ccccc3c(NCCCCN3CCCCC3)cc21	–	–	20.9	54.9 µM	2.67	6.36	28.7 µM	> 100 µM	6.96	> 100 µM	20.4	52.7 µM	18.3	48.1	22.1	48.9 µM
COc1ccc(C(OCC2OC(n3ccc(NC(=O)c4ccccc4)nc3=O)C(O)C2O)(c2ccccc2)c2ccccc2)cc1 (centres undefined)	–	3.04	–	7.87 µM	–	21.1	–	11.4 µM	–	4.17 µM	–	–	–	20.6	–	–
O=C1c2ccccc2-c2c1c1ccc([N+](=O)[O-])cc1c(=O)n2CCCBr	> 100	> 100	–	–	> 100	> 100	> 100 µM	> 100 µM	–	–	> 100	> 100 µM	> 100	> 100	–	–
COc1ccc(C2CC(c3cc(OC)c(OC)c(OC)c3)=NN2C(C)=O)cc1OCC(=O)Nc1nc2ccc(C(F)(F)F)cc2s1 (centres undefined)	–	–	–	–	–	–	–	–	–	–	1.7	4.02 µM	5.75	39.1	2.85	7.77 µM
